Key:
[1] = system: HCT116 MTAP +/+; experiment: Inhibition of cellular proliferation, 4 days, Cell Titer Glo, HCT116 MTAP+/+; assay type: cell-based; conditions: Homo sapiens, HCT-116, 96 h, IC50 score, read-out: 4 Day Relative Growth Inhibition (MTAP +/+)
Experimental: (§1) Assay for Inhibition of Cellular Proliferation
(§2) Test compound impact on cancer cell growth was assessed by treating cancer cells with compound for 4 days and then measuring proliferation using an ATP-based cell proliferation readout (Cell Titer Glo, Promega Corporation).
(§3) In a typical assay an isogenic pair of HCT116 human colon carcinoma cell lines which vary only in MTAP deletion status (HCT116 MTAP +/+ and HCT116 MTAP−/−) were plated in 96-well dishes at appropriate cell density. Following 24 hours, cells were then treated with the candidate MAT2A inhibitor. Prior to addition to cells, the compound was first serially diluted in 100% DMSO, typically as a 3-fold serial dilution starting at 500× top dose with 10 dose points including DMSO only control. Compound was then transferred to a working stock plate in cell culture media by adding 5 μL of compound in DMSO to 495 μL of cell culture media. This working stock was then added to cells via a further 5-fold dilution, by adding 25 μL of working stock to 100 μL of cells in culture media. Following compound addition, cells were incubated at 37° C./5% C02 for 4 days.
(§4) To measure inhibition of cellular proliferation, cells were allowed to equilibrate to room temperature for 30 minutes, and were then treated with 125 μL of Cell Titer Glo reagent. The plate was then covered with aluminum foil and shaken for 15 minutes to ensure complete mixing and full cell lysis. Luminescent signal was then measured using a plate-based luminometer Veritas version 1.9.2 using ATP standard curve to confirm assay reproducibility from run to run. This luminescence measure was converted to a proliferation index by subtracting from each data point the ATP luminescence signal measured from a bank (no cells) well and dividing by the ATP luminescence signal measured in 0.2% DMSO control well adjusted for signal in blank well. Compound activity was then represented as a percentage change in proliferation relative to a within-plate DMSO control against log 10 of compound concentration in molar (M) units.

[2] = target: T1, MAT2A homodimer (Homo sapiens, UniProt P31153); experiment: Biochemical assay: inhibition of recombinant MAT2A homodimer (phosphate release, PiColorLock Gold); conditions: MAT2A IC50 score; read-out: Enzyme Inhibition
T1 construct: inferred from Ni sepharose purification and imidazole elution; made in house; host or cells: Sf9 insect cells, recombinant baculovirus (Bac to Bac, pFASTBAC1 vector)
T1 sequence (P31153 whole entry): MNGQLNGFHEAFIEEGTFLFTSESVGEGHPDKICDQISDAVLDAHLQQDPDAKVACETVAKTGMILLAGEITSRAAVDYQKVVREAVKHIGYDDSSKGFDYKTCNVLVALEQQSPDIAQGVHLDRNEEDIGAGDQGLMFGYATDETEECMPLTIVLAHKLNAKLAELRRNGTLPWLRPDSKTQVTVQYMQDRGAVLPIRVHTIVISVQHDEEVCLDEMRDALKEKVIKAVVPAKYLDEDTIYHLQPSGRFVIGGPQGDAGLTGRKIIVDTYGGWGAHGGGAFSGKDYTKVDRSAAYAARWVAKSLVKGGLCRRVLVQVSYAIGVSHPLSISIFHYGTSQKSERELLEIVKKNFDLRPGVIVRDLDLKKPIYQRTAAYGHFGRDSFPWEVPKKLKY
Experimental: Mat2A protein was expressed by recombinant baculovirus in SF9 infected cells using the Bac to Bac system cloned into the pFASTBAC1 vector (Invitrogen, Carlsbad, Calif.). Recombinant MAT2A was isolated from the cell lysate of 150 g of infected cells using HP Ni sepharose column chromatography. Recombinant MAT2A homodimer was eluted with 250 and 500 mM imidazole, and fractions containing MAT2A were identified by sodium dodecyl sulfate polyacrylamide gel electrophoresis and pooled.
For determination of the inhibitory potency of compounds against the MAT2A homodimer, protein was diluted to 4 μg/mL in assay buffer (50 mM Tris, pH 8.0, 50 mM KCl, 15 mM MgCl2, 0.3 mM EDTA, 0.005% [w/v] bovine serum albumin [BSA]). Test compound was prepared in 100% dimethyl sulfoxide (DMSO) at 50× the desired final concentration. A 1 μL volume of compound dilution was added to 40 μL of enzyme dilution and the mixture was allowed to equilibrate for 60 minutes at 25° C. The enzymatic assay was initiated by the addition of 10 μL of substrate mix (500 μM ATP, pH 7.0, 40 μM L-methionine in 1× assay buffer), and the mixture was incubated for a further 60 minutes at 25° C. The reaction was halted and the liberated phosphate released by the enzyme in stoichiometric amounts by the production of S-adenosyl methionine (SAM) was measured using the PiColorLock Gold kit (Innova Biosciences, UK). Absolute product amounts were determined by comparison to a standard curve of potassium phosphate buffer, pH 8.0.

[3] = system: HCT116 MTAP-/-; experiment: Inhibition of cellular proliferation, 4 days, Cell Titer Glo, HCT116 MTAP-/-; assay type: cell-based; conditions: Homo sapiens, HCT-116, 96 h, IC50 score, read-out: 4 Day Relative Growth Inhibition (MTAP −/−)
Experimental: as §1, §2, §3, §4

[4] = system: SAM in HCT116 human colon carcinoma cell line with deleted MTAP gene; experiment: Cellular assay of target engagement (SAM): SAM level by LC-MS/MS after 72 hrs; assay type: cell-based; conditions: HCT-116, IC50 score, read-out: Cell 72 h SAM Inhibition (MTAP −/−)
Experimental: Cellular Assay of Target Engagement (SAM)
Measurement of MAT2A activity in cells was made by direct quantitation of the abundance of the product of its enzymatic activity, SAM. Cancer cells were treated with candidate MAT2A inhibitors for a suitable incubation period, and the cells were then lysed using a reagent which quenched any further enzyme activity. Soluble metabolites including SAM were collected and SAM itself was directly measured from the lysate using quantitative LC-MS/MS.
A typical assay was performed using an HCT116 human colon carcinoma cell line which was genetically engineered to delete the MTAP gene (commercially available from Horizon Discovery). This cell line was utilized because it was determined that loss of the MTAP gene predicts sensitivity to MAT2A inhibitors. Cells were plated in 96-well dishes at appropriate cell density. Following 24 hours, cells were then treated with the candidate MAT2A inhibitor. Prior to addition to cells, the compound was first serially diluted in 100% DMSO, typically as a 3-fold serial dilution starting at 500× top dose with 10 dose points including DMSO only control. Compound was then transferred to a working stock plate in cell culture media by adding 5 μL of compound in DMSO to 495 μL of cell culture media. This working stock was then added to cells via a further 5-fold dilution, by adding 25 μL of working stock to 100 μL of cells in culture media. Following compound addition, cells were incubated at 37° C./5% CO2 for 72 hrs.
To quantitate SAM levels following compound treatment, cells were gently washed once in ammonium carbonate buffer (75 mM at pH 7.4), placed on dry ice, and lysed with metabolite extraction buffer (80% cold methanol and 20% water (v/v) with acetic acid at 1M final concentration with 200 ng/mL deuterated d3-SAM as internal control). Following centrifugation at 4° C. at 3,200 rpm for 30 minutes, the supernatant was collected and stored at −80° C. until analysis by Liquid Chromatography with tandem Mass Spectrometry (LC-MS/MS). LC-MS/MS analysis was performed using an API6500 Mass Spectrometer (Sciex, Framingham, Mass., USA) operating in positive ion spray mode and equipped with a Waters UPLC Acquity (Waters, Milford, Mass., USA) BEH Amide column. Multiple Reaction Monitoring data was acquired for SAM and the d3-SAM standard, using a mass transition pair at m/z 399.2→250.1 and 402.2→250.1, respectively. In a typical LC-MS/MS analysis, the initial flow rate was 0.5 ml/min of 25% mobile phase A (acetonitrile and water at 5:95 (v/v) with 1% formic acid and 10 mM ammonium acetate) and 75% mobile phase B (acetonitrile and water at 95:5 (v/v) with 1% formic acid and 10 mM ammonium acetate), 0.2-0.5 minutes with 75%-35% mobile phase B, 25%-65% mobile phase A, at 0.5 min 65% mobile phase A and 35% mobile phase B, 1.0-1.1 minutes with 35%-75% mobile phase B, 65%-25% mobile phase A, at 1.1 min 25% mobile phase A and 75% mobile phase B with a total run time of 1.5 minutes.

SMILES | IC50 [1] | IC50 [2] | IC50 [3] | IC50 [4]
COc1ccc(-c2cc3cnc(NCC(F)(F)F)nc3n(-c3ccc(-c4nc[nH]n4)cc3)c2=O)cc1 [Example 101, 8-(4-(1H-1,2,4-triazol-3-yl)phenyl)-6-(4-methoxyphenyl)-2-(2,2,2-trifluoroethylamino)pyrido[2,3-d]pyrimidin-7(8H)-one] | ≥ 1000 nM | < 100 nM | 100 to 1000 nM | < 100 nM
COc1ccc(-c2cc3cnc(NCC(F)(F)F)nc3n(-c3ccc(O)cc3)c2=O)cc1 [Example 106] | ≥ 1000 nM | 100 to 1000 nM | 100 to 1000 nM | 100 to 1000 nM
COc1ccc(-c2cc3cnc(NCC(F)(F)F)nc3n(-c3ccc(OC)cc3)c2=O)cc1 [Example 115] | ≥ 1000 nM | < 100 nM | 100 to 1000 nM | < 100 nM
COc1ccc(-n2c(=O)c(-c3ccc4ncccc4c3)cc3cnc(NCC(F)(F)F)nc32)cc1 [Example 116] | ≥ 1000 nM | < 100 nM | < 100 nM | < 100 nM
COc1ccc(-c2cc3cnc(NCC(F)(F)F)nc3n(-c3ccc(C4CC4)cc3)c2=O)cc1 [Example 118] | ≥ 1000 nM | < 100 nM | < 100 nM | < 100 nM
Cn1cc2cc(-c3cc4ccc(OCC(F)(F)F)nc4n(-c4ccc(Cl)cc4)c3=O)ccc2n1 [Example 119, 1-(4-chlorophenyl)-3-(2-methyl-2H-indazol-5-yl)-7-(2,2,2-trifluoroethoxy)-1,8-naphthyridin-2(1H)-one] | ≥ 1000 nM | < 100 nM | < 100 nM | < 100 nM
Cn1cc2cc(-c3cc4ccc(NCC(F)(F)F)nc4n(-c4ccc(OC(F)F)cc4)c3=O)ccc2n1 [Example 120] | ≥ 1000 nM | < 100 nM | < 100 nM | < 100 nM
Cn1cc2cc(-c3cc4ccc(OC5CC5)nc4n(-c4ccc(Cl)cc4)c3=O)ccc2n1 [Example 121] | ≥ 1000 nM | < 100 nM | < 100 nM | < 100 nM
Cn1cc2cc(-c3cc4ccc(OCC(F)F)nc4n(-c4ccc(Cl)cc4)c3=O)ccc2n1 [Example 122] | 100 to 1000 nM | < 100 nM | < 100 nM | < 100 nM
COc1ccc(-n2c(=O)c(-c3ccc4nn(C)cc4c3)cc3ccc(OCC(F)(F)F)nc32)cn1 [Example 123] | ≥ 1000 nM | < 100 nM | < 100 nM | < 100 nM
COc1ccc(-n2c(=O)c(-c3ccc4nn(C)cc4c3)cc3ccc(OCC(F)F)nc32)cn1 [Example 124] | 100 to 1000 nM | < 100 nM | < 100 nM | < 100 nM
COc1ccc(-c2cc3cnc(NCC(F)(F)F)nc3n(-c3ccc(OC(F)F)cc3)c2=O)cc1 [Example 127] | ≥ 1000 nM | < 100 nM | 100 to 1000 nM | < 100 nM
COc1ccc(-c2cc3cnc(NCC(F)(F)F)nc3n(-c3ccc(CCO)cc3)c2=O)cc1 [Example 129] | ≥ 1000 nM | < 100 nM | < 100 nM | < 100 nM
COc1ccc(-c2cc3ccc(NCC(F)(F)F)nc3n(-c3ccc(OC(F)F)cc3)c2=O)cc1 [Example 130, 1-(4-(difluoromethoxy)phenyl)-3-(4-methoxyphenyl)-7-(2,2,2-trifluoroethylamino)-1,8-naphthyridin-2(1H)-one] | ≥ 1000 nM | < 100 nM | 100 to 1000 nM | < 100 nM
COc1ccc(-c2cc3ccc(NCC(F)(F)F)nc3n(-c3ccc(OC)cc3)c2=O)cc1 [Example 131] | ≥ 1000 nM | < 100 nM | < 100 nM | < 100 nM
Cn1cnc2ccc(-c3cc4ccc(NCC(F)(F)F)nc4n(-c4ccc(OC(F)F)cc4)c3=O)cc21 [Example 135] | ≥ 1000 nM | < 100 nM | < 100 nM | < 100 nM
CCOc1ccc2cc(-c3ccc4nn(C)cc4c3)c(=O)n(-c3ccc(Cl)cc3)c2n1 [Example 138] | 100 to 1000 nM | < 100 nM | < 100 nM | < 100 nM
CCOc1ccc2cc(-c3ccc(OC)cc3)c(=O)n(-c3ccc(OC(F)F)cc3)c2n1 [Example 139] | ≥ 1000 nM | < 100 nM | 100 to 1000 nM | < 100 nM
CCOc1ccc2cc(-c3ccc4nn(C)cc4c3)c(=O)n(-c3ccc(OC(F)F)cc3)c2n1 [Example 140] | 100 to 1000 nM | < 100 nM | < 100 nM | < 100 nM
CCOc1ccc2cc(-c3ccc4nn(C)cc4c3)c(=O)n(-c3ccc(OC)cc3)c2n1 [Example 142] | ≥ 1000 nM | < 100 nM | < 100 nM | < 100 nM
CCOc1ccc2cc(-c3ccc4nn(C)cc4c3)c(=O)n(-c3ccc(NC)nc3)c2n1 [Example 144] | 100 to 1000 nM | < 100 nM | < 100 nM | < 100 nM
CCNc1ccc(-n2c(=O)c(-c3ccc4nn(C)cc4c3)cc3ccc(OCC)nc32)cn1 [Example 145] | ≥ 1000 nM | < 100 nM | < 100 nM | < 100 nM
CCOc1ccc2cc(-c3ccc4nncn4c3)c(=O)n(-c3ccc(C4CC4)nc3)c2n1 [Example 215] | – | < 100 nM | < 100 nM | < 100 nM
[2H]C([2H])([2H])Oc1ccc(-n2c(=O)c(-c3ccc4nn(C)cc4c3)cc3ccc(O[C@H](C)C(F)(F)F)nc32)cc1 [Example 304] | – | < 100 nM | – | < 100 nM
